Among the test systems are SK-MEL-28 melanoma; NCI-H460 lung; ACHN renal; MDA-N; 786-0 renal; RXF 393 renal; SF-295 CNS; DU-145 prostate; CAKI-1 renal; RPMI-8226 leukemia; SR leukemia.
Common to all, as to test: NCI tumour cell line growth inhibition, 48 h

Molecules are shown by their SMILES.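 The compound was tested at five concentrations on cells cultured in 96-well plates, with a 48-hour exposure period. GI50 marks 50% less growth. TGI: total growth inhibition.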 A value given as a limit tells only on which side of the number the result lay.

`CCOC(=O)c1nc(SC)sc1NC(=O)c1ccc(OC)cc1`: the TGI with SK-MEL-28 melanoma, with NCI-H460 lung, in the assay with ACHN renal, in the assay with MDA-N, with 786-0 renal and with RXF 393 renal was above 100 µM throughout. Moreover, the TGI in the assay on SF-295 CNS, in the assay on DU-145 prostate, in the assay on CAKI-1 renal and in the assay with RPMI-8226 leukemia was above 100 µM each time.
Take `COC(=O)/C(=C(/C)c1ccco1)P(=O)(OC)OC`: the TGI in the assay on SK-MEL-28 melanoma, with SR leukemia, with ACHN renal, in the assay with 786-0 renal, with RXF 393 renal and in the assay with SF-295 CNS was above 100 µM each time. For the same compound, the TGI in the assay with DU-145 prostate, in the assay with CAKI-1 renal and in the assay on RPMI-8226 leukemia was above 100 µM in each case.
Turning to `Cc1cccc(C)c1NC(=S)N/C=C(\C#N)C(N)=O`, the TGI with SK-MEL-28 melanoma, in the assay on NCI-H460 lung, with ACHN renal, in the assay with MDA-N, with 786-0 renal and with RXF 393 renal was above 100 µM each time. Also, the TGI in the assay on SF-295 CNS, in the assay on DU-145 prostate, in the assay with CAKI-1 renal and in the assay on RPMI-8226 leukemia was above 100 µM throughout.
`Cc1cccc(-c2cc(=O)c3cccnc3[nH]2)c1`: the TGI with SK-MEL-28 melanoma, in the assay on SR leukemia, with NCI-H460 lung, in the assay on ACHN renal, with 786-0 renal and in the assay with RXF 393 renal was above 100 µM in each case. For the same compound, the TGI in the assay on SF-295 CNS, in the assay with DU-145 prostate and in the assay with RPMI-8226 leukemia was above 100 µM each time.
Regarding `c1ccc(CCCN2C3CCC2CN(CCOC(c2ccccc2)c2ccccc2)C3)cc1`, the TGI turned out to be 28.2 µM with SK-MEL-28 melanoma; 25.8 µM in the assay on NCI-H460 lung; 26.2 µM with ACHN renal; 25.9 µM with MDA-N; 21.6 µM in the assay with 786-0 renal; 26.9 µM in the assay on SF-295 CNS. Also, the figures for the TGI with DU-145 prostate, in the assay with CAKI-1 renal and in the assay with RPMI-8226 leukemia were 32 µM, 25.7 µM and 7.83 µM, respectively.
Turning to `CCOC(=O)CCCN`, the TGI with SK-MEL-28 melanoma, in the assay with NCI-H460 lung, in the assay with ACHN renal, in the assay with MDA-N, with 786-0 renal and in the assay with RXF 393 renal was above 100 µM throughout. In addition, the TGI with SF-295 CNS, in the assay on DU-145 prostate, in the assay with CAKI-1 renal and in the assay on RPMI-8226 leukemia was above 100 µM throughout.
With `CC1=NN(c2ccccc2)C(=O)/C1=C1\SC(c2ccccc2)(c2ccccc2)c2ccccc21`, the TGI in the assay with SK-MEL-28 melanoma, in the assay on NCI-H460 lung, with ACHN renal, in the assay on MDA-N, with 786-0 renal and in the assay on RXF 393 renal was above 100 µM in each case. For the same compound, the TGI in the assay with SF-295 CNS, in the assay on DU-145 prostate, in the assay with CAKI-1 renal and in the assay with RPMI-8226 leukemia was above 100 µM each time.
With `COc1ccc(/C=C2\C(=O)N(C(=O)c3ccc(NC(C)=O)cc3)N=C2C)cc1OC`, the TGI in the assay on SK-MEL-28 melanoma, in the assay with SR leukemia, with NCI-H460 lung, in the assay on ACHN renal, in the assay with 786-0 renal and in the assay with SF-295 CNS was above 100 µM throughout. Further, the TGI with CAKI-1 renal and in the assay on RPMI-8226 leukemia was above 100 µM each time.
`COc1cc(/C=C2\CC3C4CC=C5C[C@@H](O)CC[C@]5(C)C4CC[C@]3(C)\C2=N\O)cc(OC)c1OC` (stereo partly drawn): the TGI with SK-MEL-28 melanoma was above 100 µM; in the assay with NCI-H460 lung, 54.9 µM; in the assay on ACHN renal, 17.6 µM; with MDA-N, 69.6 µM; in the assay with 786-0 renal it was 72.2 µM; in the assay with RXF 393 renal, 25.1 µM. Also, the TGI in the assay with SF-295 CNS was 22 µM; with DU-145 prostate it was above 100 µM; in the assay on CAKI-1 renal it was 37.7 µM; in the assay on RPMI-8226 leukemia it was 40 µM.
Regarding `CCOC(=O)c1ccc(-c2onc(C)c2Br)[nH]1`, the TGI with SK-MEL-28 melanoma was above 100 µM; with NCI-H460 lung, above 100 µM; in the assay with ACHN renal, above 100 µM; with MDA-N, above 100 µM; with 786-0 renal it was above 100 µM; in the assay with RXF 393 renal, 96.1 µM. Also, the TGI in the assay on SF-295 CNS, in the assay with DU-145 prostate, in the assay with CAKI-1 renal and in the assay with RPMI-8226 leukemia was above 100 µM throughout.
Take `COc1cc2c(c3nc4ccccc4nc13)-c1ccc(SC)c(=O)cc1[C@@H](NC(C)=O)CC2`: the TGI in the assay on SK-MEL-28 melanoma, with SR leukemia, in the assay with NCI-H460 lung, with ACHN renal, with 786-0 renal and in the assay on RXF 393 renal was above 100 µM each time. Besides, the TGI in the assay on SF-295 CNS is above 100 µM; in the assay with DU-145 prostate, 0.838 µM; in the assay with CAKI-1 renal it was above 100 µM; in the assay on RPMI-8226 leukemia, above 100 µM.
As to `COc1ccc(OC)c([N+](=O)[O-])c1-c1nc2sc(Cl)cn2c1/C=N/N=C(N)N`, the TGI was 33.4 µM with SK-MEL-28 melanoma; 34.7 µM in the assay on SR leukemia; 56.8 µM in the assay on NCI-H460 lung; 86.3 µM in the assay with ACHN renal; above 100 µM in the assay with 786-0 renal; 48.3 µM in the assay with RXF 393 renal. Further, the TGI was 50.2 µM with SF-295 CNS, 42.8 µM in the assay with DU-145 prostate, 38.5 µM in the assay on CAKI-1 renal and above 100 µM in the assay with RPMI-8226 leukemia.
For the compound `COc1ccccc1C1C(C#N)=C(N)SC(N)=C1C#N`, the GI50 was 43.3 µM with SK-MEL-28 melanoma; 16.3 µM in the assay on SR leukemia; 49.8 µM in the assay with NCI-H460 lung; 65.1 µM in the assay on ACHN renal; above 100 µM in the assay on RXF 393 renal; 67 µM with SF-295 CNS. For the same compound, the values for the GI50 in the assay with DU-145 prostate, in the assay on CAKI-1 renal and in the assay with RPMI-8226 leukemia were 41.3 µM, 7.71 µM and 12.3 µM, respectively. Moreover, the TGI is above 100 µM in the assay with SK-MEL-28 melanoma; 83 µM in the assay on SR leukemia; above 100 µM with NCI-H460 lung; above 100 µM in the assay on ACHN renal; above 100 µM with RXF 393 renal; above 100 µM with SF-295 CNS. For the same compound, the TGI in the assay on DU-145 prostate is above 100 µM; with CAKI-1 renal it was above 100 µM; in the assay on RPMI-8226 leukemia it was 32.9 µM.
